Laboratory results from paper PMC3925890 (Advanced healthcare materials, 2012).

Experiments:
[1] = biological target: T1, VEGF (Homo sapiens, UniProt P15692); assay: Release of VEGF from functionalized microspheres; conditions: for bound VEGF released in 24 hours: microspheres incubated in a medium containing 10% FBS; for VEGF release relative to monomer microspheres (in words) / duration of sustained VEGF release: microspheres pre-incubated in 40 ng/ml VEGF solution (Fig. 3a)
T1 sequence (P15692 1-191 isoform P15692-4): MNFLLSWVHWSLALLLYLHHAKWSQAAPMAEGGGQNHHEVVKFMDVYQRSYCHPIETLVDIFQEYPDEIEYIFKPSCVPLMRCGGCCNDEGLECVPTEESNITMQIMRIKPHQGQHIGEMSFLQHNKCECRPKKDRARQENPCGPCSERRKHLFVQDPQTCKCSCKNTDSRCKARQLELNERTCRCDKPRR

[2] = test system: uterine artery endothelial cells (UAECs); conditions: 10 ng/ml VEGF-165; compared with VEGF-free condition
[3] = biological target: T1, VEGF; type: binding; conditions: Fig. 1b; varying concentrations of VEGF; microspheres containing lysine modified dimers

bound VEGF released in 24 hours [1] [%]	duration of sustained VEGF release [1]	Substance	VEGF release relative to monomer microspheres (in words) [1]	percent of responding UAECs (in words) [2]	VEGF binding efficiency over a range of VEGF concentrations (in words) [3]
48 ± 5	over 30 days	(EFdAdYdLdIDFNWEYPASK)2KC [dimera]	released significantly more VEGF and over a longer period of time relative to microspheres containing the monomer version	reduced to the same level as the VEGF-free condition	
72 ± 2	over 30 days	(EFdAdYdLdIDFNWEYPAS)2KKKC [dimerb]	released significantly more VEGF and over a longer period of time relative to microspheres containing the monomer version		consistently showed a higher VEGF binding efficiency than dimera
